In patent US20180203025A1, “HDL THERAPY MARKERS” (Cerenis Therapeutics Holding SA, priority 2014, published 2018):

Key:
[1] = test system: SREBP-1 mRNA in mouse macrophages (J774); assay: SREBP-1 gene expression (real-time PCR) in J774 macrophages; type: cell-based; details: 6 hours
Procedure: The mRNA regulation of those genes expressing ABCA1, ABCG1 and SR-BI is linked to nuclear proteins as LXR, SREBP1 and SREBP2. […] Gene expression was assayed using the protocols described in Sections 8.3.2 (RNA extraction); 8.3.4 (reverse transcription), and 8.3.5 (qPCR). SREBP-1, SREBP-2 and LXR gene expression levels were determined with Taqman probe (Mm01138344.m1, Mm01306292.m1, Mm00443451.m1 respectively) according to the manufacturer's protocol. The reference gene used is HPRT1 (Taqman probe: Mm00446968.m1).
(§1) J774 were seeded on 6 well plates (300,000 cells/well) and loaded with oxidized-LDL. […] Gene expression was assayed using the protocols described in Sections 8.3.2 (RNA extraction); 8.3.4 (reverse transcription), and 8.3.5 (qPCR). SR-BI gene (Taqman probe Mm00450234.m1), ABCG1 (Taqman probe Mm00437390.m1), SREBP1 (Taqman probe Mm01138344.m1) and ABCA1 (Taqman probe Mm00442646.m1) expression were determined according to the manufacturer's protocol. The reference gene used is HPRT1 (Taqman probe: Mm00446968.m1).
This study used β-cyclodextrin to examine the effect of β-cyclodextrin on LXR, SREBP1 and SREBP2 mRNA expression in J774 macrophages. J774 were seeded on 6 well plates (300,000 cells/well). β-cyclodextrin (0.03, 0.1, 0.3, 1, 3, 10 and 30 mM) was added for 6 hours on the macrophages and the RNA were extracted with the RiboPure™ kit according to the manufacturer's protocol. Gene expression was assayed using the protocols described in Sections 8.3.2 (RNA extraction); 8.3.4 (reverse transcription), and 8.3.5 (qPCR). SREBP-1, SREBP-2 and LXR gene expression were determined with Taqman probe (Mm01138344.m1, Mm01306292.m1, Mm00443451.m1 respectively) according to the manufacturer's protocol. The reference gene used is HPRT1 (Taqman probe: Mm00446968.m1).

[2] = test system: SR-BI mRNA in mouse macrophages (J774); assay: SR-BI gene expression (real-time PCR) in J774 macrophages; type: cell-based
Procedure: J774 were seeded on 6 well plates (300,000 cells/well) and loaded with oxidized-LDL without the use of 3H-cholesterol. […] Gene expression was assayed using the protocols described in Sections 8.3.2 (RNA extraction); 8.3.4 (reverse transcription), and 8.3.5 (qPCR). SR-BI gene expression was determined with Taqman probe Mm00450234.m1 according to the manufacturer's protocol. The reference gene used is HPRT1 (Taqman probe: Mm00446968.m1).
as §1, with “The reference gene used is HPRT1 (Taqman probe: Mm00446968.m1).” left out
J774 were seeded on 6 well plates (600,000 cells/well) in DMEM 10% FCS. […] ABCG1 (Taqman probe Mm00437390.m1), ABCA1 (Taqman probe Mm00442646.m1) and SR-BI (Taqman probe Mm00450234.m1) expression were determined according to the manufacturer's protocol. […]
J774 were seeded on 6 well plates (300,000 cells/well) in DMEM 2.5% FCS. […] ABCA1 (Taqman probe Mm00442646.m1), ABCG1 (Taqman probe Mm00437390.m1), and SR-BI (Taqman probe Mm00450234.m1) expression were determined according to the manufacturer's protocol. […]

| Compound | SREBP-1 mRNA ([1]; Study P, 0.03 to 30 mM) | SR-BI mRNA level ([2]; Study O, 0.03 to 30 mM, 6 hours) | SREBP-1 gene expression ([1]; Study D, 25, 250 and 1000 μg/mL) | concentration above which SREBP1 decrease and plateau observed ([1]; Study E) | SR-BI mRNA level ([2]; Study J, 24 hours treatment, 250 μg/mL) |
| --- | --- | --- | --- | --- | --- |
| OC[C@H]1O[C@@H]2O[C@H]3[C@H](O)[C@@H](O)[C@@H](O[C@H]4[C@H](O)[C@@H](O)[C@@H](O[C@H]5[C@H](O)[C@@H](O)[C@@H](O[C@H]6[C@H](O)[C@@H](O)[C@@H](O[C@H]7[C@H](O)[C@@H](O)[C@@H](O[C@H]8[C@H](O)[C@@H](O)[C@@H](O[C@H]1[C@H](O)[C@H]2O)O[C@@H]8CO)O[C@@H]7CO)O[C@@H]6CO)O[C@@H]5CO)O[C@@H]4CO)O[C@@H]3CO [β-cyclodextrin, reference compound] | dose-dependent decrease | dose-dependent increase | – | – | – |
| CER-001: engineered recombinant human apolipoprotein A-I HDL with sphingomyelin and DPPG; protein-to-phospholipid ratio 1:2.7, 97% Sph and 3% DPPG | – | – | affected SREBP-1 mRNA levels | above 2.5 μg/mL | do not change the mRNA level of SR-BI |
